Measurements taken from patent publication US12077503B2, “Substituted cyclic amides and their use as herbicides” (FMC CORPORATION, priority 2015, dated 2024).
Where two headings read alike, the source gives them in different places.

Tests used:
Assay type in all cases: in vivo
[1] = test system: pigweed (Amaranthus retroflexus); assay: Test A preemergence; conditions: Amaranthus retroflexus, pre-emergence, 240 h; for pest or weed control at 125 g/ha: 125 g ai/ha; for pest or weed control at 500 g/ha: 500 g ai/ha
[2] = test system: sedge, umbrella (small-flower umbrella sedge, Cyperus difformis); assay: Test B flooded paddy test; conditions: Cyperus difformis, Flood, 250 g ai/ha
Summary of the method: (§1)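 Response scored visually against untreated controls, 0 = no effect and 100 = complete control, 13–15 d after treatment in the greenhouse. Compounds added to paddy water held 3 cm above soil surface. Treatment given at 2-leaf stage.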

rice (Oryra sativa) = assay: Test B flooded paddy test; conditions: Oryza sativa, Flood, 250 g ai/ha
Summary of the method: as §1

[3] = test system: ducksalad (Heteranthera limosa); assay: Test B flooded paddy test; conditions: Heteranthera limosa, Flood, 250 g ai/ha
Summary of the method: as §1

[4] = test system: barnyardgrass (Echinochloa crus-galli); assay: Test B flooded paddy test; conditions: Echinochloa crus-galli, Flood, 250 g ai/ha
Summary of the method: as §1

[5] = preemergence, visual rating after approx. 10 d, 0 to 100 scale where 0 is no effect and 100 is complete control, read-out: Plant response rating, Pigweed
[6] = Preemergence, visual injury vs untreated controls after approximately 10 d, read-out: Pigweed plant response rating (0 to 100 scale where 0 is no effect and 100 is complete control)
[7] = scale of 0 to 100 where 0 is no effect and 100 is complete control, read-out: Sedge, Umbrella plant response rating
[8] = scale of 0 to 100 where 0 is no effect and 100 is complete control, read-out: Rice plant response rating
[9] = scale of 0 to 100 where 0 is no effect and 100 is complete control, read-out: Ducksalad plant response rating
[10] = scale of 0 to 100 where 0 is no effect and 100 is complete control, read-out: Barnyardgrass plant response rating
[11] = preemergence, 0 to 100 scale, 0 = no effect, 100 = complete control, read-out: Plant response rating, Pigweed

| SMILES | pest or weed control at 125 g/ha [1, 5] | pest or weed control at 500 g/ha [1, 6] | pest or weed control at 250 g/ha [2, 7] | pest or weed control at 250 g/ha (rice (Oryra sativa); [8]) | pest or weed control at 250 g/ha [3, 9] | pest or weed control at 250 g/ha [4, 10] | pest or weed control at 500 g/ha ([1]; preemergence, 0 to 100 scale (0 no effect, 100 complete control), read-out: Plant response rating, Pigweed) | pest or weed control at 125 g/ha ([1]; Preemergence, 0 to 100 scale (0 no effect, 100 complete control), read-out: Plant response rating, Pigweed) | pest or weed control at 250 g/ha ([2]; 360 h, visually evaluated after 13 to 15 d, read-out: Plant response rating, Sedge, Umbrella (0 to 100 scale where 0 is no effect and 100 is complete control)) | pest or weed control at 250 g/ha (rice (Oryra sativa); 360 h, visually evaluated after 13 to 15 d, read-out: Plant response rating, Rice (0 to 100 scale where 0 is no effect and 100 is complete control)) | pest or weed control at 250 g/ha ([3]; 360 h, visually evaluated after 13 to 15 d, read-out: Plant response rating, Ducksalad (0 to 100 scale where 0 is no effect and 100 is complete control)) | pest or weed control at 250 g/ha ([4]; 360 h, visually evaluated after 13 to 15 d, read-out: Plant response rating, Barnyardgrass (0 to 100 scale where 0 is no effect and 100 is complete control)) | pest or weed control at 500 g/ha [1, 11] | pest or weed control at 31 g/ha ([1]; Preemergence, 31 g ai/ha, 0 to 100 scale (0 no effect, 100 complete control), read-out: Plant response rating, Pigweed) |
| --- | --- | --- | --- | --- | --- | --- | --- | --- | --- | --- | --- | --- | --- | --- |
| CN1C[C@H](c2cccc([N+](=O)[O-])c2)[C@@H](C(=O)Nc2cccc(F)c2F)C1=O (racemic) [Compound 776] | 30% | 60% | 0% | 0% | 80% | 80% |  |  |  |  |  |  |  |  |
| C=CN1C[C@H](c2ccc(C)c(F)c2)[C@@H](C(=O)Nc2cccc(F)c2F)C1=O (racemic) [Compound 1332] |  |  |  |  |  |  | 0% | 0% | 0% | 0% | 100% | 0% |  |  |
| Cc1cc([C@H]2CNC(=O)[C@@H]2C(=O)Nc2ccccc2F)ccc1F [Compound 717] | 0% |  | 0% | 0% | 100% | 60% |  |  |  |  |  |  | 30% |  |
| Cc1cc([C@H]2CNC(=O)[C@@H]2C(=O)Nc2ccc(F)cc2F)ccc1F [Compound 718] | 0% |  | 0% | 0% | 100% | 40% |  |  |  |  |  |  | 0% |  |
| Cc1cc([C@H]2CN(C)C(=O)[C@@H]2C(=O)Nc2ccc(F)c(F)c2F)ccc1F [Compound 719] | 50% |  | 0% | 0% | 100% | 85% |  |  |  |  |  |  | 90% |  |
| Cc1ccc([C@H]2CNC(=O)[C@@H]2C(=O)Nc2cccc(F)c2F)c(F)c1 [Compound 720] | 0% |  | 0% | 0% | 100% | 30% |  |  |  |  |  |  | 0% |  |
| C=CCN1C[C@H](c2ccc(OC)c(F)c2)[C@@H](C(=O)Nc2cccc(F)c2F)C1=O [Compound 722] | 0% |  | 0% | 0% | 0% | 0% |  |  |  |  |  |  | 0% |  |
| C=CCN1C[C@H](c2ccc(OC)c(F)c2)[C@@H](C(=O)Nc2ccccc2S(C)(=O)=O)C1=O [Compound 724] | 0% |  | 0% | 0% | 0% | 0% |  |  |  |  |  |  | 0% |  |
| Cc1cc([C@H]2CNC(=O)[C@@H]2C(=O)Nc2ccc(F)cc2F)ccc1Br [Compound 725] | 0% |  | 0% | 0% | 100% | 0% |  |  |  |  |  |  | 0% |  |
| Cc1ccc([C@H]2CNC(=O)[C@@H]2C(=O)Nc2cccc(F)c2F)s1 [Compound 729] | 0% |  | 0% | 0% | 100% | 60% |  |  |  |  |  |  | 0% |  |
| CSc1ccccc1NC(=O)[C@H]1C(=O)N(C)C[C@@H]1c1ccc(C)c(C)c1 [Compound 733] | 20% |  | 0% | 0% | 60% | 20% |  |  |  |  |  |  | 60% |  |
| CSc1ccccc1NC(=O)[C@H]1C(=O)N(C)C[C@@H]1c1cc(F)cc(F)c1 [Compound 738] | 0% |  | 0% | 0% | 100% | 40% |  |  |  |  |  |  | 50% |  |
| CN1C[C@H](c2cc(F)cc(F)c2)[C@@H](C(=O)Nc2ccccc2S(C)(=O)=O)C1=O [Compound 739] | 0% |  | 0% | 0% | 100% | 60% |  |  |  |  |  |  | 30% |  |
| CN1C[C@H](c2ccc3c(c2)CCC3)[C@@H](C(=O)Nc2ccccc2F)C1=O [Compound 742] | 20% |  | 0% | 0% | 100% | 60% |  |  |  |  |  |  | 50% |  |
| CN1C[C@H](c2ccc3c(c2)CCC3)[C@@H](C(=O)Nc2cccc(F)c2F)C1=O [Compound 743] | 0% |  | 0% | 20% | 95% | 65% |  |  |  |  |  |  | 20% |  |
| CN1C[C@H](c2ccc3c(c2)CCC3)[C@@H](C(=O)Nc2ccccc2S(C)(=O)=O)C1=O [Compound 744] | 20% |  | 0% | 0% | 85% | 60% |  |  |  |  |  |  | 50% |  |
| CN1C[C@H](c2ccc(C(F)(F)F)cc2)[C@@H](C(=O)Nc2ccc(F)c(F)c2F)C1=O [Compound 745] | 80% |  | 0% | 40% | 100% | 70% |  |  |  |  |  |  | 90% |  |
| CS(=O)(=O)c1ccccc1NC(=O)[C@H]1C(=O)NC[C@@H]1c1cccc2c1OC(F)(F)O2 [Compound 753] | 0% |  | 0% | 0% | 60% | 0% |  |  |  |  |  |  | 0% |  |
| Cc1ccc([C@H]2CNC(=S)[C@@H]2C(=O)Nc2cccc(F)c2C)cc1C [Compound 764] | 0% |  | 0% | 0% | 90% | 50% |  |  |  |  |  |  | 0% |  |
| CSc1ccccc1NC(=O)[C@H]1C(=S)NC[C@@H]1c1ccc(C)c(C)c1 [Compound 766] | 0% |  | 60% | 0% | 85% | 0% |  |  |  |  |  |  | 0% |  |
| COc1cc([C@H]2CN(C)C(=O)[C@@H]2C(=O)Nc2ccccc2F)ccc1C(F)(F)F [Compound 768] | 0% |  | 0% | 15% | 85% | 60% |  |  |  |  |  |  | 20% |  |
| COc1cc([C@H]2CN(C)C(=O)[C@@H]2C(=O)Nc2cccc(F)c2F)ccc1C(F)(F)F [Compound 770] | 90% |  | 0% | 0% | 0% | 0% |  |  |  |  |  |  |  | 40% |
| CC(F)(F)c1cccc([C@H]2CNC(=O)[C@@H]2C(=O)Nc2cccc(F)c2F)c1 [Compound 779] | 40% | 60% | 0% | 0% | 100% | 60% |  |  |  |  |  |  |  |  |
| CC(F)(F)c1cccc([C@H]2CNC(=O)[C@@H]2C(=O)Nc2ccccc2S(C)(=O)=O)c1 [Compound 780] | 0% | 50% | 0% | 0% | 90% | 20% |  |  |  |  |  |  |  |  |
